Laboratory results: PubChem BioAssay (NCI)
“And” between values parts separate entries of the source, which are not always exact repeats. Equal entries are not always repeated.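 Test compounds were applied to cells in 96-well plates for 48 hours at 5 doses. GI50 is the concentration that inhibits growth by half. The concentration for full growth arrest is given as TGI.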

Key:
Test in all cases: growth of human tumour cells (NCI), 48 h
OVCAR-3 ovarian = system: OVCAR-3 ovarian
UO-31 renal = system: UO-31 renal
HT29 colon = system: HT29 colon
SNB-19 CNS = system: SNB-19 CNS
SF-268 CNS = system: SF-268 CNS
NCI-H460 lung = system: NCI-H460 lung
SW-620 colon = system: SW-620 colon
PC-3 prostate = system: PC-3 prostate
SF-295 CNS = system: SF-295 CNS
K-562 leukemia = system: K-562 leukemia
SR leukemia = system: SR leukemia
SK-MEL-2 melanoma = system: SK-MEL-2 melanoma
DU-145 prostate = system: DU-145 prostate
MCF7 breast = system: MCF7 breast
NCI-H522 lung = system: NCI-H522 lung
MDA-N = system: MDA-N
CAKI-1 renal = system: CAKI-1 renal
KM12 colon = system: KM12 colon

Compound	TGI (OVCAR-3 ovarian)	TGI (UO-31 renal)	TGI (HT29 colon)	TGI (SNB-19 CNS)	TGI (SF-268 CNS)	TGI (NCI-H460 lung)	TGI (SW-620 colon)	TGI (PC-3 prostate)	TGI (SF-295 CNS)	TGI (K-562 leukemia)	TGI (SR leukemia)	TGI (SK-MEL-2 melanoma)	TGI (DU-145 prostate)	TGI (MCF7 breast)	TGI (NCI-H522 lung)	TGI (MDA-N)	TGI (CAKI-1 renal)	TGI (KM12 colon)	GI50 (NCI-H460 lung)
COc1ccc(C(=O)c2sc(Nc3ccccc3)nc2N)cc1	> 100 µM	> 100 µM	> 100 µM	> 100 µM	> 100 µM	> 100 µM	> 100 µM	> 100 µM	> 100 µM	> 100 µM	> 100 µM	> 100 µM	> 100 µM	> 100 µM	> 100 µM				
CN1CCN(c2cc3c(cc2F)c(=O)c(C(=O)O)cn3C2CC2)CC1CC#N (configuration not stated)	> 100 µM	> 100 µM	> 100 µM	> 100 µM	> 100 µM	> 100 µM	> 100 µM		> 100 µM	> 100 µM	> 100 µM		> 100 µM	> 100 µM		> 100 µM	> 100 µM	> 100 µM	
COC(=O)[C@@H](O)[C@]1(C(=O)OC)C2O[C@@H](OC)[C@@H]1CCCCCC[C@H]2O	> 100 µM	> 100 µM	> 100 µM	> 100 µM	> 100 µM	> 100 µM	> 100 µM	> 100 µM	> 100 µM	> 100 µM	> 100 µM	> 100 µM			> 100 µM	> 100 µM	> 100 µM	> 100 µM	
COC(=O)C12OC(C)(C(CC(=O)OC(C)(C)C)C1=O)C1C(=O)N(c3ccccc3)C(=O)C12 (configuration not stated)	> 100 µM	> 100 µM	> 100 µM	> 100 µM	> 100 µM	> 100 µM	> 100 µM	> 100 µM	> 100 µM	> 100 µM	> 100 µM	> 100 µM	> 100 µM		> 100 µM	> 100 µM	> 100 µM	> 100 µM	
COc1cc(C2c3cc4c(cc3[C@@H](NCCN3CCCCC3)C3COC(=O)[C@H]23)OCO4)cc(OC)c1O (some centres not stated)	3.52 µM and 3.72 µM	1.8 µM and 1.99 µM	3.56 µM	> 100 µM and 36.7 µM	6 µM and 15.8 µM	1.03 µM and 0.914 µM	11.4 µM and 10.2 µM		0.881 µM	20.8 µM and 18 µM		4.92 µM and 4.65 µM						3.8 µM and 3.88 µM	0.0285 µM
Cc1cc(NC(=O)NC(=O)c2ccccc2N)ccc1Oc1ncc(Br)cn1	< 0.0173 µM	> 59.6 µM	0.258 µM	38.5 µM	> 67.3 µM	14.3 µM	> 100 µM	6.15 µM	17 µM	> 100 µM	> 15.8 µM	0.481 µM	> 4.64 µM	18.6 µM	0.0555 µM		63.3 µM	54.9 µM	
O=C1/C(=C/c2ccc3c(c2)OCO3)CCC1CN1CCOCC1 (configuration not stated)	20.5 µM	29.2 µM	38.5 µM	31.2 µM	28.8 µM	33.4 µM	4.83 µM	4.49 µM	33.7 µM	8.42 µM	5.42 µM	28.6 µM	29.6 µM		2.78 µM	4.07 µM	9.21 µM	11 µM	
CCOC(=O)NC(C(=O)OCC)C(F)(F)F (configuration not stated)	> 100 µM	> 100 µM	> 100 µM	> 100 µM	> 100 µM	> 100 µM	> 100 µM	> 100 µM	> 100 µM	> 100 µM	> 100 µM	> 100 µM		> 100 µM		> 100 µM	> 100 µM	> 100 µM	
Cc1ccc(S(=O)(=O)NNC(=O)c2sc(-c3nc(C)c(C(=O)NNS(=O)(=O)c4ccc(C)cc4)s3)nc2C)cc1	> 100 µM	99.7 µM	> 100 µM	> 100 µM	> 100 µM	> 100 µM	> 100 µM		> 100 µM	> 100 µM		> 100 µM					> 100 µM	> 100 µM	
Cc1cccc(NC(=O)c2cc3cc(N=Nc4ccccc4Cl)ccc3oc2=O)c1	> 100 µM	55.7 µM	> 100 µM	> 100 µM	84.4 µM	> 100 µM	> 100 µM		> 100 µM	> 100 µM					56.8 µM		> 100 µM	48.4 µM	
COc1cc(Cl)cc(N(O)C(C)=O)c1OCc1ccccc1	> 100 µM	> 100 µM	> 100 µM	> 100 µM	> 100 µM	> 100 µM	> 100 µM		> 100 µM	> 100 µM	> 100 µM				> 100 µM		> 100 µM	> 100 µM	
O=C1C=CC(=O)c2c(NCC3CC3)ccc(NCC3CC3)c21	63.4 µM	> 100 µM	88.4 µM	> 100 µM		> 100 µM	> 100 µM	> 100 µM	79.8 µM	53.9 µM	> 100 µM	> 100 µM		48.6 µM	15.9 µM			> 100 µM	
COc1ccc(-c2cc(-c3ccc(Nc4ccnc5cc(Cl)ccc45)cc3)nc(N)c2C#N)cc1	> 100 µM	70.1 µM		> 100 µM	> 100 µM	> 100 µM	> 100 µM	> 100 µM	> 100 µM	> 100 µM	> 100 µM	> 100 µM	> 100 µM	> 100 µM	> 100 µM		> 100 µM	> 100 µM	
O=C1CCCCC1=C(I)I	30.3 µM	30.5 µM		24.9 µM	57.2 µM	44.1 µM	31.2 µM	30.9 µM	65.8 µM	95.8 µM	> 100 µM	31.8 µM	34.1 µM			31.3 µM		28.8 µM	
NC1CC(N)c2c(Br)sc(Br)c21 (configuration not stated)	> 100 µM	> 100 µM	> 100 µM		> 100 µM	> 100 µM	> 100 µM		> 100 µM	> 100 µM	> 100 µM	> 100 µM	> 100 µM	> 100 µM	> 100 µM	> 100 µM	> 100 µM	> 100 µM	
